From PubChem BioAssay (NCI)
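Growth conditions: 96-well plates. Treatment: test compound, 48 hours, 5 concentrations. Analysis: linear interpolation between bracketing concentrations; unreached endpoints set to highest concentration. GI50: concentration for 50% inhibition of growth. TGI marks complete inhibition of growth.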

Experiments:
Assay in all cases: NCI anticancer screen, dose series, 48 h
BT-549 breast = test system: BT-549 breast
A549 NSCLC = test system: A549 NSCLC
RPMI-8226 leukemia = test system: RPMI-8226 leukemia
UO-31 renal = test system: UO-31 renal
DU-145 prostate = test system: DU-145 prostate
OVCAR-8 ovarian = test system: OVCAR-8 ovarian
SK-MEL-2 melanoma = test system: SK-MEL-2 melanoma
CCRF-CEM leukemia = test system: CCRF-CEM leukemia
HT29 colon = test system: HT29 colon
NCI-H226 lung = test system: NCI-H226 lung

| SMILES | TGI (BT-549 breast) [µM] | TGI (A549 NSCLC) [µM] | TGI (RPMI-8226 leukemia) [µM] | TGI (UO-31 renal) [µM] | TGI (DU-145 prostate) [µM] | TGI (OVCAR-8 ovarian) [µM] | TGI (SK-MEL-2 melanoma) [µM] | TGI (CCRF-CEM leukemia) [µM] | TGI (HT29 colon) [µM] | TGI (NCI-H226 lung) [µM] | GI50 (BT-549 breast) [µM] | GI50 (A549 NSCLC) [µM] | GI50 (RPMI-8226 leukemia) [µM] | GI50 (UO-31 renal) [µM] | GI50 (DU-145 prostate) [µM] | GI50 (OVCAR-8 ovarian) [µM] | GI50 (SK-MEL-2 melanoma) [µM] | GI50 (CCRF-CEM leukemia) [µM] | GI50 (HT29 colon) [µM] | GI50 (NCI-H226 lung) [µM] |
| --- | --- | --- | --- | --- | --- | --- | --- | --- | --- | --- | --- | --- | --- | --- | --- | --- | --- | --- | --- | --- |
| O=c1[nH]cnc2c1nnn2CCCCCCCCCCCCn1nnc2c(=O)[nH]cnc21 | > 100 | > 100 | > 100 | > 100 | > 100 | > 86.8 | 51 | > 100 | > 100 | 63.5 | – | – | – | – | – | – | – | – | – | – |
| NC(=S)c1c(N)n(C2OC(CO)C(O)C2O)c2ncnc(N)c12 (stereo not given) | 0.475 | > 100 | 3.05 | 2.33 | > 100 | 0.863 | 1.07 | 0.773 | > 40.9 | 16 | 0.17 | 0.301 | 0.511 | 0.27 | 0.278 | 0.232 | 0.297 | 0.241 | 0.147 | 0.695 |
| N=c1c2c(=N)n3c(nc2nc2n1-c1ccccc1Sc1ccccc1-2)sc1cc(Cl)ccc13 | > 100 | > 100 | > 100 | 7.68 | > 100 | 67.9 | 13.9 | > 100 | > 100 | 16.8 | 3.97 | 2.25 | 0.988 | 1.29 | 3.55 | 3.1 | 1.44 | 2.59 | 3.43 | 1.73 |
| CN1C(=O)C2(c3ccccc31)N(c1ccc(Cl)cc1)C(=O)C2(c1ccccc1)c1ccccc1 (stereo not given) | > 100 | > 100 | > 100 | > 100 | > 100 | > 100 | > 100 | > 100 | > 100 | > 100 | > 100 | 18.5 | 6.25 | 27.9 | 99 | > 100 | 35.6 | 9.72 | 11 | > 100 |
| N#CC1c2ccccc2C=CN1C(=O)N(c1ccccc1)c1ccccc1 (stereo not given) | 21.2 | 51.8 | 6.87 | 3.12 | 9.36 | 54.1 | 13.6 | 8.99 | 11.5 | 15.2 | 8.68 | 19.7 | 2.56 | 1.49 | 3.04 | 13.3 | 3.97 | 2.97 | 3.56 | 3.76 |
| Cn1cc(C2=C(c3cn(CCCCCSC(=N)N)c4ccccc34)C(=O)NC2=O)c2ccccc21 | 7.12 | 8.65 | 9.61 | 7.29 | 6.93 | 10.4 | 6.43 | 5.87 | 4.03 | 9.96 | 3.65 | 4.4 | 4.13 | 3.62 | 3.58 | 3.61 | 3.13 | 1.93 | 1.11 | 4.09 |
